Holding throughout (assay type): cell-based
In experiment [1] the target is T1, Gastrin/cholecystokinin type B receptor (Homo sapiens) (UniProt P32239).
T1 sequence (whole entry): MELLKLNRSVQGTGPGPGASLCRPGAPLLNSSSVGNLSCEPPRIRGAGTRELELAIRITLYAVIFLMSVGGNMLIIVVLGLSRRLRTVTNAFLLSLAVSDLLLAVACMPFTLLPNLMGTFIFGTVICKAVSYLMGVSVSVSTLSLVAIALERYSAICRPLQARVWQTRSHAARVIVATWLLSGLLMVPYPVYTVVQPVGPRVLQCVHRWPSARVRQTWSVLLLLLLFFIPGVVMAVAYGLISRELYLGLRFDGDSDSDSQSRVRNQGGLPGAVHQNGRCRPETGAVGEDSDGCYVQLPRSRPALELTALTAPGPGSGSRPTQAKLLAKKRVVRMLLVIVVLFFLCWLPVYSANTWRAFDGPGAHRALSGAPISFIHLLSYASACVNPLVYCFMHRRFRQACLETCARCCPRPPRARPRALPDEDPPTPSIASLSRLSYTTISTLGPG
In words: Displacement of Eu-DTPA-CCK8 from CCK2 receptor in HEK293 cells after 2 hrs by TRF assay relative to CCK4.

For experiment [2], the target named is T2, Gastrin/cholecystokinin type B receptor (Homo sapiens, UniProt P32239).
T2 sequence (P32239 whole entry): T1 sequence (whole entry)
In words: Displacement of Eu-DTPA-CCK8 from CCK2 receptor in HEK293 cells after 2 hrs by TRF assay.

Another experiment concerns the target Melanocortin receptor 4 (Homo sapiens, UniProt P32245). In words: Binding affinity to MC4R in HEK293 cells.

Each structure is given as a SMILES string.

Melanocortin receptor 4, sequence (P32245 whole entry): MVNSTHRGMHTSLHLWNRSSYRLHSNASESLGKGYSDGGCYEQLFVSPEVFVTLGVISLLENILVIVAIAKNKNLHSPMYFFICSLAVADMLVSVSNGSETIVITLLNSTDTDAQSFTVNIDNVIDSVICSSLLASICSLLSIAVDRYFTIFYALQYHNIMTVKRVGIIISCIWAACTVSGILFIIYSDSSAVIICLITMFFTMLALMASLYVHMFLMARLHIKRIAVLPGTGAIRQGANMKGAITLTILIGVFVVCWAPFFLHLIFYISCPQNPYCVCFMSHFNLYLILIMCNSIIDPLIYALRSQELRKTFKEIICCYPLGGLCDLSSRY

On to `C#CCCC(=O)NCCCC[C@H](NC(C)=O)C(=O)N[C@@H](Cc1c[nH]c2ccccc12)C(=O)N(C)[C@@H](CCCC)C(=O)N[C@@H](CC(=O)O)C(=O)N[C@@H](Cc1ccccc1)C(=O)Nc1cn(CC(=O)NCCCC(CCCNC(=O)Cn2cc(NC(=O)[C@H](Cc3ccccc3)NC(=O)[C@H](CC(=O)O)NC(=O)[C@H](CCCC)N(C)C(=O)[C@H](Cc3c[nH]c4ccccc34)NC(=O)[C@H](CCCCNC(=O)CCC#C)NC(C)=O)nn2)(NC(=O)CNC(=O)Cn2cc(NC(=O)[C@H](Cc3ccccc3)NC(=O)[C@H](CC(=O)O)NC(=O)[C@H](CCCC)N(C)C(=O)[C@H](Cc3c[nH]c4ccccc34)NC(=O)[C@H](CCCCNC(=O)CCC#C)NC(C)=O)nn2)C(=O)NCCC(N)=O)nn1`, for which the fold change (FC) in experiment [1] came to 1.5. In experiment [2], the IC50 amounted to 12 nM.

In turn, `C#CCCC(=O)NCCCC[C@H](NC(C)=O)C(=O)N[C@@H](Cc1c[nH]c2ccccc12)C(=O)N(C)[C@@H](CCCC)C(=O)N[C@@H](CC(=O)O)C(=O)N[C@@H](Cc1ccccc1)C(=O)Nc1cn(CC(=O)NCCC(=O)NCCCC(CCCNC(=O)CCNC(=O)Cn2cc(NC(=O)[C@H](Cc3ccccc3)NC(=O)[C@H](CC(=O)O)NC(=O)[C@H](CCCC)N(C)C(=O)[C@H](Cc3c[nH]c4ccccc34)NC(=O)[C@H](CCCCNC(=O)CCC#C)NC(C)=O)nn2)(NC(=O)CNC(=O)CCNC(=O)Cn2cc(NC(=O)[C@H](Cc3ccccc3)NC(=O)[C@H](CC(=O)O)NC(=O)[C@H](CCCC)N(C)C(=O)[C@H](Cc3c[nH]c4ccccc34)NC(=O)[C@H](CCCCNC(=O)CCC#C)NC(C)=O)nn2)C(=O)NCCC(N)=O)nn1` came in with a fold change (FC) in experiment [1] of 3. In experiment [2], this molecule came in with an IC50 of 5.2 nM.

Take `C#CCCC(=O)NCCCC[C@H](NC(C)=O)C(=O)N[C@@H](Cc1c[nH]c2ccccc12)C(=O)N(C)[C@@H](CCCC)C(=O)N[C@@H](CC(=O)O)C(=O)N[C@@H](Cc1ccccc1)C(=O)Nc1cn(CC(=O)NCCC(=O)NCCC(=O)NCCCC(CCCNC(=O)CCNC(=O)CCNC(=O)Cn2cc(NC(=O)[C@H](Cc3ccccc3)NC(=O)[C@H](CC(=O)O)NC(=O)[C@H](CCCC)N(C)C(=O)[C@H](Cc3c[nH]c4ccccc34)NC(=O)[C@H](CCCCNC(=O)CCC#C)NC(C)=O)nn2)(NC(=O)CNC(=O)CCNC(=O)CCNC(=O)Cn2cc(NC(=O)[C@H](Cc3ccccc3)NC(=O)[C@H](CC(=O)O)NC(=O)[C@H](CCCC)N(C)C(=O)[C@H](Cc3c[nH]c4ccccc34)NC(=O)[C@H](CCCCNC(=O)CCC#C)NC(C)=O)nn2)C(=O)NCCC(N)=O)nn1`: the fold change (FC) in experiment [1] worked out at 2. This molecule yielded an IC50 in experiment [2] of 8.5 nM.

In experiment [2], `C#CCCC(=O)NCCCC[C@H](NC(C)=O)C(=O)N[C@@H](Cc1c[nH]c2ccccc12)C(=O)N(C)[C@@H](CCCC)C(=O)N[C@@H](CC(=O)O)C(=O)N[C@@H](Cc1ccccc1)C(N)=O` returned an IC50 of 16 nM. That is a double-digit nanomolar value.

For `C#CCCC(=O)NCCCC[C@H](NC(C)=O)C(=O)N[C@@H](Cc1c[nH]c2ccccc12)C(=O)N(C)[C@@H](CCCC)C(=O)N[C@@H](CC(=O)O)C(=O)N[C@@H](Cc1ccccc1)C(=O)Nc1cn(CC(=O)NCC(=O)N2CCC[C@H]2C(=O)NCC(=O)NCCCC(CCCNC(=O)CNC(=O)[C@@H]2CCCN2C(=O)CNC(=O)Cn2cc(NC(=O)[C@H](Cc3ccccc3)NC(=O)[C@H](CC(=O)O)NC(=O)[C@H](CCCC)N(C)C(=O)[C@H](Cc3c[nH]c4ccccc34)NC(=O)[C@H](CCCCNC(=O)CCC#C)NC(C)=O)nn2)(NC(=O)CNC(=O)CNC(=O)[C@@H]2CCCN2C(=O)CNC(=O)Cn2cc(NC(=O)[C@H](Cc3ccccc3)NC(=O)[C@H](CC(=O)O)NC(=O)[C@H](CCCC)N(C)C(=O)[C@H](Cc3c[nH]c4ccccc34)NC(=O)[C@H](CCCCNC(=O)CCC#C)NC(C)=O)nn2)C(=O)NCCC(N)=O)nn1`, the fold change (FC) in experiment [1] came to 2.5. Also, the IC50 in experiment [2] was found to be 6 nM.

In turn, `C#CCCC(=O)NCCCC[C@H](NC(C)=O)C(=O)N[C@@H](CO)C(=O)N[C@@H](CCCC)C(=O)N[C@@H](CCC(=O)O)C(=O)N[C@@H](Cc1cnc[nH]1)C(=O)N[C@H](Cc1ccccc1)C(=O)N[C@@H](CCCNC(=N)N)C(=O)N[C@@H](Cc1c[nH]c2ccccc12)C(=O)Nc1cn(CC(=O)NCCCC(CCCNC(=O)Cn2cc(NC(=O)[C@H](Cc3c[nH]c4ccccc34)NC(=O)[C@H](CCCNC(=N)N)NC(=O)[C@@H](Cc3ccccc3)NC(=O)[C@H](Cc3cnc[nH]3)NC(=O)[C@H](CCC(=O)O)NC(=O)[C@H](CCCC)NC(=O)[C@H](CO)NC(=O)[C@H](CCCCNC(=O)CCC#C)NC(C)=O)nn2)(NC(=O)CNC(=O)Cn2cc(NC(=O)[C@H](Cc3c[nH]c4ccccc34)NC(=O)[C@H](CCCNC(=N)N)NC(=O)[C@@H](Cc3ccccc3)NC(=O)[C@H](Cc3cnc[nH]3)NC(=O)[C@H](CCC(=O)O)NC(=O)[C@H](CCCC)NC(=O)[C@H](CO)NC(=O)[C@H](CCCCNC(=O)CCC#C)NC(C)=O)nn2)C(=O)NCCC(N)=O)nn1` (stereo not given in full) yielded an IC50 at Melanocortin receptor 4 of 12 nM.

Values taken from ChEMBL document CHEMBL2385073, “Synthesis and evaluation of cholecystokinin trimers: a multivalent approach to pancreatic cancer detection and treatment” (Bioorg Med Chem Lett, 2013).
